As usually defined, the IC50 is the point on the concentration scale where inhibition reaches its midpoint.

The source of these data is patent publication US20240116910A1, “Heterocycles as WIP1 Inhibitors” (PMV Pharmaceuticals, Inc., priority 2022, published 2024).

The target in this experiment is recombinant His-tag Wip1(2-420) protein (amino acids #2-420) (Homo sapiens (Human), UniProt O15297). Put plainly: Wip1(2-420) phosphatase enzyme FDP assay. The class given is biochemical. The conditions noted are these: fluorescein diphosphate (FDP) substrate, RT 2 hours, fluorescence Ex485/Em535; read-out: WIP1 (Truncated 2-420) FDP Assay: IC50.
Chain of recombinant His-tag Wip1(2-420) protein (amino acids #2-420) (O15297 2-420): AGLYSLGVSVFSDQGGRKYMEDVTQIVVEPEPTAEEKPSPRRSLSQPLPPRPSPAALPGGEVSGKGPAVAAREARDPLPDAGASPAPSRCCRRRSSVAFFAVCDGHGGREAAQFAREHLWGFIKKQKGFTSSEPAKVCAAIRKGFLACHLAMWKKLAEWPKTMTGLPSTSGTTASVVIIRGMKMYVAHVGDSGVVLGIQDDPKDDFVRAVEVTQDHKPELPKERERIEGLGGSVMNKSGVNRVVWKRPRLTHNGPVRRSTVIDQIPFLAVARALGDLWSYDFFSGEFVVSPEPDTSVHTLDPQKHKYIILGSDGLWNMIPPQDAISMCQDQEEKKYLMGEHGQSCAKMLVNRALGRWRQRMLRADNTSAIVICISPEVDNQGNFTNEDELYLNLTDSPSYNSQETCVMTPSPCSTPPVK
In the case of `C[C@H](Nc1cc(Cl)cnc1C(C)(C)O)c1ccc(C(=O)N[C@@H](CC2CCCC2)C(=O)NC2CC2)s1` [Compound 194, (2S)-2-({5-[(1S)-1-{[5-chloro-2-(2-hydroxypropan-2-yl)pyridin-3-yl]amino}ethyl]thiophen-2-yl}formamido)-3-cyclopentyl-N-cyclopropylpropanamide], the concentration for half-maximal inhibition (IC50) was determined as 6 nM.

On to `Cc1ncc(Cl)cc1N[C@@H](C)c1ccc(C(=O)N[C@@H](CC2CCCC2)C(=O)Nc2cnn(CCF)c2)s1` [Compound 141, (2S)-2-({5-[(1S)-1-[(5-chloro-2-methylpyridin-3-yl)amino]ethyl]thiophen-2-yl}formamido)-3-cyclopentyl-N-[1-(2-fluoroethyl)-1H-pyrazol-4-yl]propanamide], for which the IC50 was 5 nM.

Take `Cc1ncc(Cl)cc1N[C@@H](C)c1ccc(C(=O)N[C@@H](CC2CCCC2)C(=O)Nc2ccc3c(c2)N(C)CCC3)s1` [Compound 167, (2S)-2-({5-[(1S)-1-[(5-chloro-2-methylpyridin-3-yl)amino]ethyl]thiophen-2-yl}formamido)-3-cyclopentyl-N-(1-methyl-1,2,3,4-tetrahydroquinolin-7-yl)propanamide]: the 50% inhibitory concentration (IC50) was 11 nM.

As for `Cc1ncc(Cl)cc1NC(C)(C)c1ccc(C(=O)N[C@@H](CC2CCCC2)C(=O)NC23CC(C#N)(C2)C3)s1` [Compound 266, (2S)-2-[(5-{2-[(5-chloro-2-methylpyridin-3-yl)amino]propan-2-yl}thiophen-2-yl)formamido]-N-{3-cyanobicyclo[1.1.1]pentan-1-yl}-3-cyclopentylpropanamide], the IC50 was determined as 20 nM.

As to `Cc1ncc(Cl)cc1N[C@@H](C)c1ccc(C(=O)N[C@@H](CC2CCCC2)C(=O)NC2CCC2C)s1` (stereo partly drawn) [Compound 88, (2S)-2-({5-[(1S)-1-[(5-chloro-2-methylpyridin-3-yl)amino]ethyl]thiophen-2-yl}formamido)-3-cyclopentyl-N-(2-methylcyclobutyl)propanamide], the IC50 amounted to 6 nM.

As for `Cc1ncc(Cl)cc1N[C@@H](C)c1ccc(C(=O)N[C@@H](CC2CCCC2)C(=O)NC2CC3(COC3)C2)s1` [Compound 237, (2S)-2-({5-[(1S)-1-[(5-chloro-2-methylpyridin-3-yl)amino]ethyl]thiophen-2-yl}formamido)-3-cyclopentyl-N-{2-oxaspiro[3.3]heptan-6-yl}propanamide], the IC50 came to 8 nM.

Consider `COc1ccc(NC(=O)[C@H](CC2CCCC2)NC(=O)c2ccc([C@H](C)Nc3cc(Cl)cnc3C)s2)cn1` [Compound 276, (2S)-2-({5-[(1S)-1-[(5-chloro-2-methylpyridin-3-yl)amino]ethyl]thiophen-2-yl}formamido)-3-cyclopentyl-N-(6-methoxypyridin-3-yl)propanamide], for which the IC50 came out at 5 nM.

For the molecule `Cc1ncc(Cl)cc1N[C@@H](C)c1ccc(C(=O)N[C@H](CC2CCCC2)C(=O)Nc2ccnc(Cl)c2)s1` [Compound 142, (2R)-2-({5-[(1S)-1-[(5-chloro-2-methylpyridin-3-yl)amino]ethyl]thiophen-2-yl}formamido)-N-(2-chloropyridin-4-yl)-3-cyclopentylpropanamide], the half-maximal inhibitory concentration (IC50) was determined as 2500 nM.

As to `Cc1ncc(Cl)cc1N[C@@H](C)c1ccc(C(=O)N[C@@H](CC2CCC3CC32)C(=O)NC2CC2)s1` (stereo partly drawn) [Compound 92, (2S)-3-{bicyclo[3.1.0]hexan-2-yl}-2-({5-[(1S)-1-[(5-chloro-2-methylpyridin-3-yl)amino]ethyl]thiophen-2-yl}formamido)-N-cyclopropylpropanamide], the 50% inhibitory concentration (IC50) turned out to be 10 nM.

Turning to `Cc1ncc(Cl)cc1N[C@@H](C)c1ccc(C(=O)N[C@H](C(=O)NC23CC(C2)C3)C(C)(C)C)s1` [Compound 246, (2S)-N-{bicyclo[1.1.1]pentan-1-yl}-2-({5-[(1S)-1-[(5-chloro-2-methylpyridin-3-yl)amino]ethyl]thiophen-2-yl}formamido)-3,3-dimethylbutanamide], the IC50 was found to be 2210 nM.

For the molecule `C[C@H](Nc1cc(Cl)cnc1C(N)=O)c1ccc(C(=O)N[C@@H](CC2CCCC2)C(=O)Nc2cnn(C)c2)s1` [Compound 136, 5-chloro-3-{[(1S)-1-(5-{[(1S)-2-cyclopentyl-1-[(1-methyl-1H-pyrazol-4-yl)carbamoyl]ethyl]carbamoyl}thiophen-2-yl)ethyl]amino}pyridine-2-carboxamide], the concentration for half-maximal inhibition (IC50) was determined as 5 nM.

Turning to `Cc1ncc(Cl)cc1N[C@H](Cn1cccn1)c1ccc(C(=O)N[C@@H](CC2CCCC2)C(=O)NC2CC2)s1` [Compound 165, (2S)-2-({5-[(1R)-1-[(5-chloro-2-methylpyridin-3-yl)amino]-2-(1H-pyrazol-1-yl)ethyl]thiophen-2-yl}formamido)-3-cyclopentyl-N-cyclopropylpropanamide], the IC50 was found to be 378 nM.

Take `Cc1ncc(Cl)cc1N[C@@H](C)c1ccc(C(=O)N[C@H](CC23CCC(CC2)CC3)C(=O)NC2CC2)s1` [Compound 255, (2R)-3-{bicyclo[2.2.2]octan-1-yl}-2-({5-[(1S)-1-[(5-chloro-2-methylpyridin-3-yl)amino]ethyl]thiophen-2-yl}formamido)-N-cyclopropylpropanamide]: the IC50 was 4870 nM.

As for `Cc1ncc(Cl)cc1N[C@@H](C)c1ccc(C(=O)N[C@@H](CC2CCCC2)C(=O)NC2CCC(C#N)C2)s1` (stereo partly drawn) [Compound 115, (2S)-2-({5-[(1S)-1-[(5-chloro-2-methylpyridin-3-yl)amino]ethyl]thiophen-2-yl}formamido)-N-(3-cyanocyclopentyl)-3-cyclopentylpropanamide], the IC50 is 11 nM.

`Cc1ncc(Cl)cc1N[C@@H](C)c1ccc(C(=O)N[C@@H](C(=O)NC23CC(C2)C3)C(C)(C)C)s1` [Compound 247, (2R)-N-{bicyclo[1.1.1]pentan-1-yl}-2-({5-[(1S)-1-[(5-chloro-2-methylpyridin-3-yl)amino]ethyl]thiophen-2-yl}formamido)-3,3-dimethylbutanamide]: the IC50 was more than 10000 nM.

`C[C@H](Nc1cc(Cl)cnc1-c1cccnc1)c1ccc(C(=O)N[C@@H](CC2CCCC2)C(=O)NC2CC2)s1` [Compound 232, (2S)-2-({5-[(1S)-1-({5-chloro-[2,3′-bipyridin]-3-yl}amino)ethyl]thiophen-2-yl}formamido)-3-cyclopentyl-N-cyclopropylpropanamide]: the IC50 came to 13 nM.

As for `Cc1ncc(Cl)cc1N[C@@H](C)c1ccc(C(=O)N[C@@H](CCC(C)(C)C)C(=O)NC2CC2)s1` [Compound 161, (2S)-2-({5-[(1S)-1-[(5-chloro-2-methylpyridin-3-yl)amino]ethyl]thiophen-2-yl}formamido)-N-cyclopropyl-5,5-dimethylhexanamide], the IC50 is 11 nM.

Consider `Cc1ncc(Cl)cc1N[C@@H](C)c1ccc(C(=O)N[C@H](CC2CCCC2)C(=O)Nc2ccnc(O)c2)s1` [Compound 140, (2R)-2-({5-[(1S)-1-[(5-chloro-2-methylpyridin-3-yl)amino]ethyl]thiophen-2-yl}formamido)-3-cyclopentyl-N-(2-hydroxypyridin-4-yl)propanamide], for which the IC50 worked out at 402 nM.

Turning to `Cc1ncc(Cl)cc1N[C@@H](C)c1ccc(C(=O)N[C@@H](CC2CCCCC2)C(=O)NC23CC(C2)C3)s1` [Compound 109, (2S)-N-{bicyclo[1.1.1]pentan-1-yl}-2-({5-[(1S)-1-[(5-chloro-2-methylpyridin-3-yl)amino]ethyl]thiophen-2-yl}formamido)-3-cyclohexylpropanamide], the IC50 came to 8 nM.

As to `Cc1ncc(Cl)cc1N[C@H](Cc1ccccc1)c1ccc(C(=O)N[C@@H](CC2CCCC2)C(=O)NC2CC2)s1` [Compound 261, (2S)-2-({5-[(1R)-1-[(5-chloro-2-methylpyridin-3-yl)amino]-2-phenylethyl]thiophen-2-yl}formamido)-3-cyclopentyl-N-cyclopropylpropanamide], the IC50 was determined as 40 nM.

Consider `Cc1ncc(Cl)cc1N[C@@H](C)c1ccc(C(=O)N[C@@H](CC2CCCC2)C(=O)N[C@H]2C[C@@H](C)C2)s1` [Compound 99, (2S)-2-({5-[(1S)-1-[(5-chloro-2-methylpyridin-3-yl)amino]ethyl]thiophen-2-yl}formamido)-3-cyclopentyl-N-[(1r,3s)-3-methylcyclobutyl]propanamide], for which the IC50 came out at 7 nM.

For the molecule `Cc1ncc(Cl)cc1N[C@@H](C)c1ccc(C(=O)N[C@@H](CC2CC3CC3C2)C(=O)NC2CC2)s1` (stereo partly drawn) [Compound 201, (2S)-3-{bicyclo[3.1.0]hexan-3-yl}-2-({5-[(1S)-1-[(5-chloro-2-methylpyridin-3-yl)amino]ethyl]thiophen-2-yl}formamido)-N-cyclopropylpropanamide], the IC50 turned out to be 7 nM.

`C[C@H](Nc1cc(Cl)cnc1C(=O)N(C)C)c1ccc(C(=O)N[C@@H](CC2CCCC2)C(=O)NC2CC2)s1` [Compound 205, 5-chloro-3-{[(1S)-1-(5-{[(1S)-2-cyclopentyl-1-(cyclopropylcarbamoyl)ethyl]carbamoyl}thiophen-2-yl)ethyl]amino}-N,N-dimethylpyridine-2-carboxamide]: the 50% inhibitory concentration (IC50) is 29 nM.

For `CCNC(=O)[C@H](CC1CCCCC1)NC(=O)c1ccc([C@H](C)Nc2cc(Cl)cnc2C)s1` [Compound 264, (2S)-2-({5-[(1S)-1-[(5-chloro-2-methylpyridin-3-yl)amino]ethyl]thiophen-2-yl}formamido)-3-cyclohexyl-N-ethylpropanamide], the IC50 is 7 nM.

`CC(Nc1cc(Cl)cnc1C(C)(C)C#N)c1ccc(C(=O)N[C@@H](CC2CCCC2)C(=O)NC2CC2)s1` (stereo partly drawn) [Compound 192]: the concentration for half-maximal inhibition (IC50) came out at 408 nM.

For `Cc1ncc(Cl)cc1N[C@@H](C)c1ccc(C(=O)N[C@@H](CC2CCCC2)C(=O)NC2CCc3ncccc3C2)s1` (stereo partly drawn) [Compound 169, (2S)-2-({5-[(1S)-1-[(5-chloro-2-methylpyridin-3-yl)amino]ethyl]thiophen-2-yl}formamido)-3-cyclopentyl-N-(5,6,7,8-tetrahydroquinolin-6-yl)propanamide], the 50% inhibitory concentration (IC50) was found to be 9 nM.

Take `Cc1ncc(Cl)cc1N[C@@H](C)c1ccc(C(=O)N[C@@H](CC2CCCC2)C(=O)NCC(=O)O)s1` [Compound 93, 2-[(2S)-2-({5-[(1S)-1-[(5-chloro-2-methylpyridin-3-yl)amino]ethyl]thiophen-2-yl}formamido)-3-cyclopentylpropanamido]acetic acid]: the IC50 was found to be 208 nM.
